Source: patent publication US9637520B2, “Template-fixed peptidomimetics with CXCR7 modulating activity” (POLYPHOR AG, priority 2010, dated 2017)
Starred links: 1 amine or outer side, 2 acyl side, 3 side chain; linkers in the order of their positions; H or OH if unused. Non-standard residues stand in square brackets, D forms with d. Residues, ends and D or L forms follow the SMILES beside them. *: point of attachment. X3 = O=C(N[C@H]1C[C@@H](C(=O)[*:2])N([*:1])C1)c1ccccc1; Arg(Nω,Nω'-propylene) = N[C@@H](CCCNC1=NCCCN1)C(=O)O; Ala(pyrazol-1-yl) = N[C@@H](Cn1cccn1)C(=O)O; dPro(cis-4-NH2) = N[C@H]1CN[C@@H](C(=O)O)C1; X1 = O=C([C@H](CCCNCc1ccccn1)N[*:1])[*:2]; X4 = Cn1ccnc1CNCCC[C@H](N[*:1])C(=O)[*:2]; Pro(cis-4-F) = O=C(O)[C@@H]1C[C@H](F)CN1; Morpholine(3S-CO) = O=C(O)[C@@H]1COCCN1; dPro(3S-OH) = O=C(O)[C@@H]1NCC[C@@H]1O; 1Nal = N[C@@H](Cc1cccc2ccccc12)C(=O)O; Pro(3S-OH) = O=C(O)[C@H]1NCC[C@@H]1O; cisHyp = O=C(O)[C@@H]1C[C@H](O)CN1; Pyrazinecarbonyl = O=C(c1cnccn1)*; dCit = NC(=O)NCCC[C@@H](N)C(=O)O; Tic = O=C(O)[C@@H]1Cc2ccccc2CN1; d3Pal = N[C@H](Cc1cccnc1)C(=O)O; dHyp = O=C(O)[C@H]1C[C@H](O)CN1; aThr = C[C@H](O)[C@H](N)C(=O)O; Agb = N=C(N)NCC[C@H](N)C(=O)O; Agp = N=C(N)NC[C@H](N)C(=O)O; dPip = O=C(O)[C@H]1CCCCN1; hSer = N[C@@H](CCO)C(=O)O; Nle = CCCC[C@H](N)C(=O)O; Orn = NCCC[C@H](N)C(=O)O; Dab = NCC[C@H](N)C(=O)O; Abu = CC[C@H](N)C(=O)O; Bn = c1ccc(C*)cc1

Target: T1, CXCR7 (Homo sapiens, UniProt P25106)
T1 construct: host or cells: CHO (PathHunter CHO-CXCR7 β-arrestin cells)
T1 sequence (P25106 whole entry): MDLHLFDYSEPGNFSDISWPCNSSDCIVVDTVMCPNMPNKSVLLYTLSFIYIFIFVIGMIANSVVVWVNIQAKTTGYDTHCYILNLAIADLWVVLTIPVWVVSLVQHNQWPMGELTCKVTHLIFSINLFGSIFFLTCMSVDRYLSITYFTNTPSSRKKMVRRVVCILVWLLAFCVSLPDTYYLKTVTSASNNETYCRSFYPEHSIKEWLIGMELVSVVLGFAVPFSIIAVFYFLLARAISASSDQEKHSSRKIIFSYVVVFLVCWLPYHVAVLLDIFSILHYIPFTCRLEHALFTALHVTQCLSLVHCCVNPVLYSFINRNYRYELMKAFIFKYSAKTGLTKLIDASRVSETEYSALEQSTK
Experiment: CXCR7 β-arrestin recruitment assay (PathHunter CHO-CXCR7, DiscoverX), agonistic assay
Format: cell-based
Conditions: not given
Method: Lyophilized peptides were weighed on a Microbalance (Mettler MX5) and dissolved in DMSO to a final concentration of 10 mM unless otherwise stated. Stock solutions were kept at +4° C., and protected from light.
2.2 CXCR7 β-Arrestin Recruitment Assay
The PathHunter CHO-CXCR7 (DiscoverX) assay was performed according to the manufacturer's protocol. In brief, CHO CXCR7 β-arrestin cells were seeded at a density of 5000 cells per well in 40 μl of F12 medium in black 96-half volume well culture plates and incubated overnight at 37° C. in a humidified atmosphere with 5% CO2. The next day, serial dilutions of PEM compounds have been prepared in DMSO and subsequently diluted in HBSS buffer containing 0.1% BSA.
For agonistic assay, 10 μl of compound solution or a solution of stromal cell-derived factor-1 (SDF-1) as positive control was added to the cells with a final DMSO concentration of 1% (v/v). The plate was incubated for 90 min at 37° C. in 5% CO2 incubator with gentle shaking (300 rpm) before addition of 40 μl of detection reagent per well. Reaction was developed for 90 min at room temperature in the dark with shaking, and chemiluminescence was measured with a Topcount (Perkin Elmer) luminescence counter.

Row | Structure (SMILES) | EC50
1 | O=C(N[C@H]1C[C@H]2C(=O)N[C@@H](Cc3c[nH]cn3)C(=O)N[C@H](Cc3c[nH]c4ccccc34)C(=O)N[C@@H](Cc3c[nH]cn3)C(=O)N[C@@H](Cc3c[nH]c4ccccc34)C(=O)N3CCC[C@@H]3C(=O)N2C1)c1ccccc1 [Ex. 51, cyclo(-His-^DTrp-His-Trp-^DPro-Pro((4S)NHBz)-)] (cyclo(HW[dP][X3]H[dW])) | 0.413 ± 0.225 µM

Same assay, conditions: agonistic assay; CHO CXCR7 β-arrestin cells; 90 min at 37° C.; chemiluminescence; read-out: β-Arrestin EC50

Row | Structure (SMILES) | EC50
2 | O=C1N[C@H](Cc2ccccc2)C(=O)N[C@@H](Cc2c[nH]c3ccccc23)C(=O)N[C@@H](CCCNC2=NCCCN2)C(=O)N2CCCC[C@@H]2C(=O)N2CC[C@H](O)[C@H]2C(=O)N[C@H]1Cc1c[nH]c2ccccc12 [Ex. 73, cyclo(-Trp-^DPhe-Trp-Orn(A56)-^DPip-Pro((3S)OH)—)] (cyclo(W[dF]W[Arg(Nω,Nω'-propylene)][dPip][Pro(3S-OH)])) | 0.014 ± 0.0001 µM
3 | N=C(N)NCCC[C@@H]1NC(=O)[C@@H](CCCNC(=N)N)NC(=O)[C@H](Cc2cccc3ccccc23)NC(=O)[C@@H]2[C@@H](O)CCN2C(=O)[C@H]2CCCN2C(=O)[C@H](Cc2c[nH]c3ccccc23)NC1=O [compound 52, cyclo(-1Nal-^DArg-Arg-Trp-^DPro-Pro((3S)OH)—)] (cyclo([1Nal][dR]RW[dP][Pro(3S-OH)])) | 0.0137 ± 0.0051 µM
4 | CC[C@H](C)[C@@H]1NC(=O)[C@H](CO)NC(=O)[C@H]2CCCN2C(=O)[C@H](Cc2c[nH]c3ccccc23)NC(=O)[C@H](CCCNC(=N)N)NC(=O)[C@@H](CCCNC(=N)N)NC1=O [Ex. 22, cyclo(-Ile-^DArg-Arg-Trp-^DPro-Ser-)] (cyclo(I[dR]RW[dP]S)) | 0.0128 ± 0.0035 µM
5 | CC[C@H](C)[C@@H]1NC(=O)[C@H]([C@@H](C)O)NC(=O)[C@H]2CCCN2C(=O)[C@H](Cc2c[nH]c3ccccc23)NC(=O)[C@H](CCCNCc2ccccn2)NC(=O)[C@@H](CCCNC(=N)N)NC1=O [compound 70, cyclo(-Ile-^DArg-Orn(Ar4)-Trp-^DPro-Thr-)] (cyclo(I[dR][X1]W[dP]T)) | 0.0046 ± 0.0008 µM
6 | CC[C@H](C)[C@@H]1NC(=O)[C@H]([C@H](C)O)NC(=O)[C@H]2CCCN2C(=O)[C@H](Cc2c[nH]c3ccccc23)NC(=O)[C@H](CCCNC(=N)N)NC(=O)[C@@H](CCCNC(=N)N)NC1=O [compound 9, cyclo(-Ile-^DArg-Arg-Trp-^DPro-alloThr-)] (cyclo(I[dR]RW[dP][aThr])) | 0.292 ± 0.101 µM
7 | N=C(N)NCCC[C@@H]1NC(=O)[C@H](Cc2c[nH]c3ccccc23)NC(=O)[C@@H](Cc2ccccc2)NC(=O)[C@H](Cc2c[nH]c3ccccc23)NC(=O)[C@@H]2C[C@H](OCc3ccccc3)CN2C(=O)[C@H]2C[C@H](O)CN2C1=O [compound 49, cyclo(-Trp-^DPhe-Trp-Arg-^DPro((4S)OH)-(4S)-Hyp(Bn)-)] (cyclo(R[dHyp][cisHyp](Bn)W[dF]W)) | 0.0076 ± 0.0101 µM
8 | CC[C@@H]1NC(=O)[C@H]([C@@H](C)O)NC(=O)[C@H]2CCCN2C(=O)[C@H](Cc2c[nH]c3ccccc23)NC(=O)[C@H](CCCNC(=N)N)NC(=O)[C@@H](CCCNC(=N)N)NC1=O [compound 58, cyclo(-Abu-^DArg-Arg-Trp-^DPro-Thr-)] (cyclo([Abu][dR]RW[dP]T)) | 0.33 ± 0.0932 µM
9 | N=C(N)NCCC[C@@H]1NC(=O)[C@H](Cc2c[nH]c3ccccc23)NC(=O)[C@@H](Cc2ccccc2)NC(=O)[C@H](Cc2c[nH]c3ccccc23)NC(=O)[C@@H]2COCCN2C(=O)[C@H]2CCCN2C1=O [compound 46, cyclo(-Trp-^DPhe-Trp-Arg-^DPro-Mor-)] (cyclo(R[dP][Morpholine(3S-CO)]W[dF]W)) | 0.133 ± 0.0531 µM
10 | N=C(N)NCCC[C@@H]1NC(=O)[C@H](Cc2c[nH]c3ccccc23)NC(=O)[C@@H](Cc2ccccc2)NC(=O)[C@H](Cc2c[nH]c3ccccc23)NC(=O)[C@@H]2C[C@H](F)CN2C(=O)[C@H]2CCCN2C1=O [Ex. 43, cyclo(-Trp-^DPhe-Trp-Arg-^DPro-Pro((4S)F)—)] (cyclo([Pro(cis-4-F)]W[dF]WR[dP])) | 0.119 ± 0.0423 µM
11 | CC[C@H](C)[C@@H]1NC(=O)[C@H](CCO)NC(=O)[C@H]2CCCN2C(=O)[C@H](Cc2c[nH]c3ccccc23)NC(=O)[C@H](CCCNC(=N)N)NC(=O)[C@@H](CCCNC(=N)N)NC1=O [Ex. 8, cyclo(-Ile-^DArg-Arg-Trp-^DPro-hSer-)] (cyclo(I[dR]RW[dP][hSer])) | 0.347 ± 0.0103 µM
12 | Cn1ccnc1CNCCC[C@@H]1NC(=O)[C@H](Cc2c[nH]c3ccccc23)NC(=O)[C@@H](Cc2ccccc2)NC(=O)[C@H](Cc2c[nH]c3ccccc23)NC(=O)[C@@H]2Cc3ccccc3CN2C(=O)[C@H]2C[C@@H](N)CN2C1=O [compound 78, cyclo(-Trp-^DPhe-Trp-Orn(Ar7)-^DPro((4R)NH2)-Tic-)] (cyclo([Tic]W[dF]W[X4][dPro(cis-4-NH2)])) | 0.145 ± 0.0109 µM
13 | C[C@@H]1NC(=O)[C@@H]2Cc3ccccc3CN2C(=O)[C@H]2C[C@@H](N)CN2C(=O)[C@H](CCCNC(=N)N)NC(=O)[C@H](Cc2c[nH]c3ccccc23)NC(=O)[C@@H](Cc2ccccc2)NC1=O [compound 27, cyclo(-Ala-^DPhe-Trp-Arg-^DPro((4R)NH2)-Tic-)] (cyclo(A[dF]WR[dPro(cis-4-NH2)][Tic])) | 0.322 ± 0.0482 µM
14 | CC[C@H](C)[C@@H]1NC(=O)[C@H]([C@@H](C)O)NC(=O)[C@H]2CCCN2C(=O)[C@H](Cc2c[nH]c3ccccc23)NC(=O)[C@H](CCCNC(=O)c2cnccn2)NC(=O)[C@@H](CCCNC(=N)N)NC1=O [compound 64, cyclo(-Ile-^DArg-Orn(A41)-Trp-^DPro-Thr-)] (cyclo(I[dR][Orn](Pyrazinecarbonyl)W[dP]T)) | 0.518 ± 0.0209 µM
15 | CCCC[C@@H]1NC(=O)[C@H]([C@@H](C)O)NC(=O)[C@H]2CCCN2C(=O)[C@H](Cc2c[nH]c3ccccc23)NC(=O)[C@H](CCCNC(=N)N)NC(=O)[C@@H](CCCNC(=N)N)NC1=O [compound 61, cyclo(-Nle-^DArg-Arg-Trp-^DPro-Thr-)] (cyclo([Nle][dR]RW[dP]T)) | 0.0028 ± 0.001 µM
16 | CC[C@H](C)[C@@H]1NC(=O)[C@H]([C@@H](C)O)NC(=O)[C@H]2CCCN2C(=O)[C@H](Cc2c[nH]c3ccccc23)NC(=O)[C@H](CCCNC(=N)N)NC(=O)[C@@H](CCCNC(N)=O)NC1=O [compound 13, cyclo(-Ile-^DCit-Arg-Trp-^DPro-Thr-)] (cyclo(I[dCit]RW[dP]T)) | 0.473 ± 0.0689 µM
17 | CC[C@H](C)[C@@H]1NC(=O)[C@H]([C@@H](C)O)NC(=O)[C@H]2CCCN2C(=O)[C@H](Cc2c[nH]c3ccccc23)NC(=O)[C@H](CNC(=N)N)NC(=O)[C@@H](CCCNC(=N)N)NC1=O [Ex. 23, cyclo(-Ile-^DArg-Agp-Trp-^DPro-Thr-)] (cyclo([Agp]W[dP]TI[dR])) | 0.0905 ± 0.0607 µM
18 | C[C@@H](O)[C@@H]1NC(=O)[C@H]([C@@H](C)O)NC(=O)[C@H]2CCCN2C(=O)[C@H](CCCNC(=N)N)NC(=O)[C@H](Cc2c[nH]c3ccccc23)NC(=O)[C@@H](CCCNC(=N)N)NC1=O [compound 19, cyclo(-Thr-^DArg-Trp-Arg-^DPro-Thr-)] (cyclo(R[dP]TT[dR]W)) | 0.0172 ± 0.0189 µM
19 | N=C(N)NCCC[C@@H]1NC(=O)[C@H](Cc2c[nH]c3ccccc23)NC(=O)[C@@H](Cc2cccnc2)NC(=O)[C@H](Cc2c[nH]c3ccccc23)NC(=O)[C@@H]2Cc3ccccc3CN2C(=O)[C@H]2C[C@@H](N)CN2C1=O [compound 38, cyclo(-Trp-^D3Pal-Trp-Arg-^DPro((4R)NH2)-Tic-)] (cyclo(R[dPro(cis-4-NH2)][Tic]W[d3Pal]W)) | 0.0061 ± 0.0015 µM
20 | CC[C@H](C)[C@@H]1NC(=O)[C@H]([C@@H](C)O)NC(=O)[C@H]2[C@@H](O)CCN2C(=O)[C@H](Cc2c[nH]c3ccccc23)NC(=O)[C@H](CCCNC(=N)N)NC(=O)[C@@H](CCCNC(=N)N)NC1=O [Ex. 55, cyclo(-Ile-^DArg-Arg-Trp-^DPro((4S)OH)-Thr-)] (cyclo(I[dR]RW[dPro(3S-OH)]T)) | 0.632 ± 0.0233 µM
21 | N=C(N)NCCC[C@@H]1NC(=O)[C@H](Cc2c[nH]c3ccccc23)NC(=O)[C@@H](Cc2ccccc2)NC(=O)[C@H](CCNC(=N)N)NC(=O)[C@@H]2Cc3ccccc3CN2C(=O)[C@H]2C[C@@H](N)CN2C1=O [compound 36, cyclo(-Agb-^DPhe-Trp-Arg-^DPro((4R)NH2)-Tic-)] (cyclo([Agb][dF]WR[dPro(cis-4-NH2)][Tic])) | 0.452 ± 0.0158 µM
22 | C[C@@H](O)[C@@H]1NC(=O)[C@H]2CCCN2C(=O)[C@H](Cc2c[nH]c3ccccc23)NC(=O)[C@H](CCCNC(=N)N)NC(=O)[C@@H](CCCNC(=N)N)NC(=O)[C@H](Cc2cccc3ccccc23)NC1=O [Ex. 10, cyclo(-1Nal-^DArg-Arg-Trp-^DPro-Thr-)] (cyclo([1Nal][dR]RW[dP]T)) | 0.0285 ± 0.0126 µM
23 | CC[C@H](C)[C@@H]1NC(=O)[C@H]([C@@H](C)O)NC(=O)[C@H]2CCCN2C(=O)[C@H](Cc2c[nH]c3ccccc23)NC(=O)[C@H](CCN)NC(=O)[C@@H](CCCNC(=N)N)NC1=O [Ex. 4, cyclo(-Ile-^DArg-Dab-Trp-^DPro-Thr-)] (cyclo([Dab]W[dP]TI[dR])) | 0.087 ± 0.0841 µM
24 | N=C(N)NCCC[C@@H]1NC(=O)[C@H](Cc2c[nH]c3ccccc23)NC(=O)[C@@H](Cc2ccccc2)NC(=O)[C@H](Cn2cccn2)NC(=O)[C@@H]2Cc3ccccc3CN2C(=O)[C@H]2C[C@@H](N)CN2C1=O [Ex. 74, cyclo(-Ala(1Pyraz)-^DPhe-Trp-Arg-^DPro((4R)NH2)-Tic-)] (cyclo(R[dPro(cis-4-NH2)][Tic][Ala(pyrazol-1-yl)][dF]W)) | 0.0299 ± 0.0089 µM
